From the supplement of paper PMC10949913

Tests used:
Assay in all cases: area under concentration-response curve (viability) (AUC (a.u.)); higher = less active
Conditions in all cases: 48 h
NCI-H295R = tested on: NCI-H295R
How it was run: (§1)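 Library compounds were dispensed at 11 concentrations (23 nL each) onto three adrenocortical carcinoma cell lines in 1,536-well plates. Luminescence was recorded after 48 h using CellTiter-Glo, and signals were normalised per plate to vehicle and empty-well controls. Fitted concentration-response curves of inhibitory or non-responding classes only supplied the AC50 and area under the curve.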

CU-ACC2 = tested on: CU-ACC2
How it was run: as §1

CU-ACC1 = tested on: CU-ACC1
How it was run: as §1

| SMILES | area under concentration-response curve (NCI-H295R) | area under concentration-response curve (CU-ACC2) | area under concentration-response curve (CU-ACC1) |
| --- | --- | --- | --- |
| CN(C)[C@H]\1[C@@H]2[C@@H](O)[C@H]3\C(=C(O)/[C@]2(O)C(=O)\C(=C1O)C(N)=O)C(=O)C4=C(C=CC=C4O)[C@@]3(C)O | 530 | 625 | 593 |
| CNc1nc(Nc2ccc(C(=O)N3CCOCC3)cc2OC)ncc1Cl | 555 | 607 | 511 |
| Cc1c(Cn2c(C)nc3c(C(=O)O)cc(N4CCOCC4)cc32)cccc1C(F)(F)F | 519 | 524 | 444 |
| CCCOc1ccc(C(=O)OCCN(CC)CC)cc1N | 481 | 530 | 377 |
| O=[N+]([O-])c1cncn1CCN1CCOCC1 | 563 | 611 | 545 |
| C[Se]CCC(N)C(=O)O (stereo unspecified) | 479 | 550 | 540 |
| CC(=O)O[C@@]1(CC[C@H]2[C@@H]3\C=C(C)/C4=C/C(=O)CC[C@]4(C)[C@H]3CC[C@]12C)C(C)=O | 492 | 553 | 471 |
| COc1nccc(-c2c(-c3ccc(F)cc3)ncn2C2CCC(O)CC2)n1 (stereo unspecified) | 550 | 590 | 523 |
| COc1ccc(CCC(=O)Nc2nc3ccc(Cl)cc3s2)cc1OC | 563 | 600 | 575 |
| COc1cc(-c2cc(-c3ccc(N4CCNCC4)cc3)cnc2C)cc(OC)c1OC | 556 | 585 | 548 |
| ClC1=CC=C2OC3=C(\N=C(NC3=O)\[C@@H]4CCCN4)C2=C1 | 534 | 601 | 410 |
| C=C[C@H]1CN2CC[C@H]1C[C@H]2[C@H](O)c1ccnc2ccc(OC)cc12 | 521 | 602 | 501 |
| CC(C)CC(=O)N[C@H](C(=O)N[C@H](C(=O)N[C@@H](CC(C)C)[C@@H](O)CC(=O)N[C@@H](C)C(=O)N[C@@H](CC(C)C)[C@@H](O)CC(=O)O)C(C)C)C(C)C | 485 | 538 | 537 |
| O=C(NCc1cccc(O)c1)Nc1nc(-c2ccncc2)cs1 | 559 | 582 | 546 |
| C#CCC(Cc1cnc2nc(N)nc(N)c2n1)c1ccc(C(=O)N[C@@H](CCC(=O)O)C(=O)O)cc1 (stereo partly specified) | 546 | 509 | 552 |
| CC(NCCc1ccc(O)cc1)C(O)c1ccc(O)cc1 (stereo unspecified) | 496 | 592 | 523 |
| N[C@@H](Cc1cc(I)c(Oc2cc(I)c(O)c(I)c2)c(I)c1)C(=O)O | 564 | 620 | 548 |
| CN1CCN(CC1)C2=C(NC(=O)C/3=C/NC(=O)/C=C3C(F)(F)F)C=C(C=C2)C4=CC(=CC=C4)CN5CCOCC5 | 514 | 610 | 508 |
| Nc1ncnc2c1c(COc1cccc(Cl)c1)nn2C1CCOCC1 | 525 | 578 | 461 |
| O=C(O)c1cccnc1 | 548 | 604 | 579 |
| O=C(Nc1c(Cl)cncc1Cl)c1ccc(OC(F)F)c(OCC2CC2)c1 | 523 | 556 | 464 |
| COC1=CC=C(C=C1)C(=O)C2CCN(CC2)CC(=O)N(CC3CC3)C\C4=N\C5=C(\COCC5)C(=O)N4 | 520 | 564 | 495 |
| Cc1ccc([S+](=O)([O-])Nc2nc3ccccc3nc2Nc2ccc3nsnc3c2)cc1 | 535 | 640 | 558 |
| CNC(=O)[C@H](Cc1c[nH]c2ccccc12)NC(=O)[C@@H](CC(=O)NO)CC(C)C | 460 | 492 | 473 |

| SMILES | area under concentration-response curve (NCI-H295R) | area under concentration-response curve (CU-ACC2) | area under concentration-response curve (CU-ACC1) |
| --- | --- | --- | --- |
| C[C@H](Nc1ncnc2[nH]cnc12)c1cc2ccc(F)cc2nc1-c1ccccn1 | 512 | 571 | 466 |
| CN(CC(=O)N(Cc1ccc(C2CCCCC2)cc1)c1ccc(C(=O)O)c(O)c1)[S+](=O)([O-])c1c(F)c(F)c(F)c(F)c1F | 536 | 558 | 486 |
| COC(=O)/C=C/C(=O)N(O)CCCCNCc1ccc(COC(=O)Nc2cccc3ccccc23)cc1 | 225 | 245 | 208 |
| N#C/N=C(\NCCCCCCOc1ccc(Cl)cc1)Nc1ccncc1 | 425 | 367 | 269 |
| CNC(=O)[C@@H](NC(=O)[C@H](CC(C)C)[C@H](O)C(=O)NO)C(C)(C)C | 563 | 615 | 513 |
| Cc1cc(C)c2c(c1)[C@@H](N(Cc1cc(C(F)(F)F)cc(C(F)(F)F)c1)c1nnn(C)n1)CCCN2C[C@H]1CC[C@H](C(=O)O)CC1 | 529 | 582 | 489 |
| CC(/C=C1\SC(=S)N(CC(=O)O)C1=O)=C\c1ccccc1 | 492 | 594 | 494 |
| CC1=NN(c2ccc(C(=O)O)cc2)C(=O)/C1=C/c1ccc(-c2cc(C)c(C)cc2[N+](=O)[O-])o1 | 585 | 661 | 556 |
| COC1=CC=C(Cl)C=C1\C2=C\C(=O)NC(=S)N2CC(N)=O | 556 | 580 | 448 |
| FC(F)(F)c1ccc(CNc2ccc(Cc3c[nH]c4ncc(Cl)cc34)cn2)cn1 | 582 | 630 | 555 |
| CCCC\1=C(/CNC(=O)C2=CC(=CC3=C2C=N[N]3C(C)C)C4=CC=C(N=C4)N5CCN(CC5)C(C)C)C(=O)NC(=C1)\C | 472 | 485 | 379 |
| Nc1ncnc2c1ncn2[C@@H]1O[C@H](CO)[C@@H](O)[C@H]1O | 470 | 506 | 463 |
| COC/1=C/[C@@H]2[C@@H]3CC4=C(C(=C(OC)C=C4)O)[C@]2(CCN3C)CC1=O | 479 | 519 | 457 |
| CCN1CCN(c2ccc(Nc3cc(N(C)C(=O)Nc4c(Cl)c(OC)cc(OC)c4Cl)ncn3)cc2)CC1 | 479 | 580 | 511 |
| CNC(=O)c1ccc(-c2cnc3ncc(Cc4ccc5ncccc5c4)n3n2)cc1F | 511 | 520 | 481 |
| C[C@@H]1CC[C@H]2[C@@H](C)C(=O)O[C@@H]3O[C@@]4(C)CC[C@@H]1[C@]32OO4 | 556 | 604 | 547 |
| CC(C)NCC(O)COc1ccc(CCOCC2CC2)cc1 (stereo unspecified) | 536 | 560 | 493 |
| C#Cc1cccc(Nc2ncnc3cc4c(cc23)OCCOCCOCCO4)c1 | 546 | 599 | 462 |
| CN1C(=O)[C@@H](NC(=O)[C@H](CCC(F)(F)F)[C@H](CCC(F)(F)F)C(N)=O)\N=C(C2=CC=CC=C2)/C3=CC=CC=C13 | 530 | 610 | 514 |
| Nc1nc(F)nc2c1ncn2[C@@H]1O[C@H](COP(=O)(O)O)[C@@H](O)[C@@H]1O | 514 | 521 | 527 |
| O=C1NC(=O)/C(=C/c2ccc3c(c2)OC(F)(F)O3)S1 | 537 | 599 | 512 |
| C[C@@H]1CC2=C(C=C3OCOC3=C2)C(=N\N1C(C)=O)/C4=CC=C(N)C=C4 | 406 | 398 | 394 |
| FC1=CC=C(C=C1)N2/C=C\C=C(C(=O)NC3=CC=C(OC4=C5C=C[NH]C5=NC=C4)C(=C3)F)/C2=O | 535 | 616 | 588 |
